The structures appear in SMILES notation.

Data on 2 compounds can be found in patent US12728126B2, “Compounds for inhibiting LY6K and methods of using same” (The Henry M. Jackson Foundation for the Advancement of …, priority 2020, dated 2026).

One assay has as its system MDA-MB-231 cells. The assay is described as follows: Cell-Titer-Blue assay, control vs LY6K knockdown MDA-MB-231 cells. It counts as cell-based. Here is the method:
(§1) For cell death assay, cells were plated in a black walled 96-well plate and treated with the indicated concentration of drugs for 24 h. Cell-Titer-Blue reagent was added, and the Cytation 5 microplate reader (BioTek, Winooski, VT, USA) was used to measure fluorescence intensity (excitation 560(10) nm, emission 590(20) nm) according to manufacturer's instructions.
To confirm the effect of NSC243928 in LY6K-expressing cells, it was observed the parental control and sh2 LY6K knockdown in MDA-MB-231 cells, a triple negative breast cancer cell line. These cells were generated as previously described. To test the effect of NSC243928 on cell growth, the cells were seeded into 96-well plates and treated with 2 μM of the compound for 24 h. A CTB assay was then performed according to manufacturer's instructions to determine the cell growth.
(§2) Cells were serum starved overnight and then treated with TGF 13 (10 ng/mL) or IFN γ (100 ng/mL) in the presence of 2 μM NSC243928 or NSC11150 for 30 minutes followed by protein analysis using western blot. […] NSC243928 inhibited the TGFβ1 induced phosphorylation of Smad2/3; NSC11150 had no effect on TGFβ1/Smad2/3 signaling. NSC11150 inhibited IFNγ induced phosphorylation of Stat1; NSC243928 had no effect on IFNγ/Stat1 signaling.

The subject of assay [1] is PD-L1. The assay is described as follows: PD-L1 measured in live cells after IFN γ treatment. It counts as cell-based. As to conditions: serum starved, 100 ng/ml IFN γ, 2 μM drug. On the procedure: Cells were serum starved and treated with 100 ng/ml IFN γ with 2 μM drugs. PD-L1 was measured in live cells (using a zombie live-dead stain). The graph was plotted from three experiments. A 7.9-fold decrease in the number of cells with high PD-L1 expression was observed.

Assay [2] has as its system 4T1 mouse mammary tumor cells. In words: 4T1 syngeneic mammary tumor model, tumor growth in vivo. To be noted: 4T1 model. Also noted: species or system Balb/c mice. Here is the method: A syngeneic mammary tumor model is used to show the effect of Ly6K small molecule inhibitors on tumor growth in vivo. 4T1 mouse model is an orthotopic allograft model (also called the spontaneous tumor metastasis model). In the 4T1 mouse model, 4T1 mouse mammary tumor cells were injected into the second mammary gland of syngenetic Balb/c mice, and the spontaneous metastasis to the lung were analyzed with a colonogenic assay. 4T1 mice bearing 50-70 mm^3 tumors were treated with NSC243928 or NSC11150 every second day at a dosage of 5 mg/kg in saline. Each group had 10 mice. Tumor measurements were performed using a Vernier caliper. The tumor volumes were calculated using equation ½*length*(width*width).

For a further assay, the system named is TGFβ1/Smad2/3 signaling. In words: Western blot of TGFβ1 induced phosphorylation of Smad2/3. It counts as cell-based. To be noted: serum starved, TGFβ1 (10 ng/mL), 2 μM, 30 minutes. Here is the method:
as §2
On the technique in general: A western blot detects proteins with antibodies after separation by electrophoresis.

A further assay deals with IFNγ/Stat1 signaling. In words: Western blot of IFNγ induced phosphorylation of Stat1. In kind it is cell-based. To be noted: serum starved, IFN γ (100 ng/mL), 2 μM, 30 minutes. On the procedure:
as §2

Assay [3] has as its system PD-L1. The assay is described as follows: PD-L1 protein expression in control cells. In kind it is cell-based. To be noted: 2 μM.
In assay [4] the test system is Hs-578-T cells, BT-549 cells, and OVCAR-8 cells. The assay is described as follows: In vitro cell growth inhibition in other cancer cell types (FIG. 2). It counts as cell-based. On the procedure: as §1
Cell culture and viability assay are as described herein. […] The inhibitory effect of a crystalline form of Compound I on cell growth in vitro is further illustrated in other cancer cells types, including Hs-578-T cells, BT-549 cells, and OVCAR-8 cells (FIG. 2).

For the compound `Oc1ccc(Cc2ccc(Cl)cc2)c(O)c1` [Compound II, 4-(4-chlorobenzyl)benzene-1,3-diol], in the assay with MDA-MB-231 cells (2 μM, 24 h, control cells), the “cell death / cell growth in control MDA-MB-231 cells” value is listed as “did not show significant effect on cell death”. The “cell death in Ly6K knockdown cells” value in the assay with MDA-MB-231 cells (100 μM, Ly6K knockdown cells (data not shown)) is given as “induced cell death”. In addition, the “cell death in control cells” value with MDA-MB-231 cells (100 μM, control cells (data not shown)) is “induced cell death”. For the same compound, the “inhibitory effect on cells with high expression of PD-L1” value with PD-L1 [1] is “showed inhibitory effect”. The “decrease in the number of cells with high PD-L1 expression” value in the assay on PD-L1 [1] (live cells, three experiments) is listed as 7.9 fold. In assay [2] (5 mg/kg every second day, P<0.005), the “day following treatment at which inhibition on tumor growth is statistically significant” value was found to be 11 days. Moreover, in assay [2] (5 mg/kg in saline every second day), the “inhibitory effect on tumor growth in vivo” value was “significant inhibitory effects”. Moreover, the “TGFβ1 induced phosphorylation of Smad2/3” value in the assay on TGFβ1/Smad2/3 signaling was “had no effect”. Moreover, in the assay on IFNγ/Stat1 signaling, the “IFNγ induced phosphorylation of Stat1” value is on record as “inhibited”. In addition, the PD-L1 protein expression result with PD-L1 [3] is given as “inhibition of PD-L1 expression”.

Take `CCS(=O)(=O)Nc1ccc(Nc2c3ccccc3nc3ccccc23)c(OC)c1` [crystalline form of Compound I, N-(4-(acridin-9-ylamino)-3-methoxyphenyl)ethanesulfonamide]: the “inhibitory effect on cell growth at different concentrations (comparison)” value in assay [4] (crystalline form compared, different concentrations) is listed as “same or better inhibitory effect”. Besides, in assay [4] (range over the cell types of FIG. 2), the IC50 (as a rule, the midpoint of a concentration-inhibition curve) lay in the range of 4.17 to 7.65 µM.
